The source made the active and inactive calls. The calls are words filed in the database; no cut-off is given here.
Tests used:
[1] = Thermodynamic solubility of the compound in aqueous phosphate buffer at pH 7.4 measured after 24 hrs by UV-spectra reader analysis; assay type: physicochemical; settings: read-out: Therm_solubility
[2] = target: T1, Neuronal acetylcholine receptor subunit alpha-7 (Homo sapiens, UniProt P36544); test: Displacement of [125I] alpha bungarotoxin from human neuronal alpha7 nAChR expressed in human SH-SY5Y cell membrane measured after 120 mins by Topcount scintillation counting method; assay type: cell membranes
RAW264.7 = test: Cytotoxicity against mouse RAW264.7 cells assessed as cell viability at 10 uM measured after 24 hrs by MTT assay; assay type: cell-based; settings: raw264.7, 24 h
[3] = Displacement of [125I] alpha bungarotoxin from human muscle type nAChR expressed in human TE-671 cell membrane measured after 120 mins by Topcount scintillation counting method; assay type: cell membranes
[4] = target: T1, Neuronal acetylcholine receptor subunit alpha-7; test: Displacement of [125I] alpha bungarotoxin from human neuronal alpha7 nAChR expressed in human SH-SY5Y cell membrane at 10 uM measured after 120 mins by Topcount scintillation counting method; assay type: cell membranes
TE-671 = test: Displacement of [125I] alpha bungarotoxin from human muscle type nAChR expressed in human TE-671 cell membrane at 10 uM measured after 120 mins by Topcount scintillation counting method; assay type: cell membranes; settings: filed as antagonist
[5] = target: T2, Neuronal acetylcholine receptor; alpha4/beta2 (Homo sapiens, UniProt P17787+P43681); test: Displacement of [125I] alpha bungarotoxin from human neuronal alpha4beta2 nAChR expressed in human SH-SY5Y cell membrane at 10 uM measured after 120 mins by Topcount scintillation counting method; assay type: cell membranes
[6] = target: T2, Neuronal acetylcholine receptor; alpha4/beta2; test: Displacement of [125I] alpha bungarotoxin from human neuronal alpha4beta2 nAChR expressed in human SH-SY5Y cell membrane measured after 120 mins by Topcount scintillation counting method; assay type: cell membranes
[7] = Effective permeability of compound measured after 240 mins by PAMPA-BBB assay based UV/Vis spectrophotometer analysis; assay type: ADME; settings: read-out: Peff
Homo sapiens [8] = species on record: Homo sapiens; test: Selectivity index, ratio of Ki for human neuronal alpha4beta2 nAChR expressed in human SH-SY5Y cell membrane to Ki for human muscle type nAChR expressed in human TE-671 cell membrane; assay type: cell-based
Homo sapiens [9] = species on record: Homo sapiens; test: Selectivity index, ratio of Ki for human neuronal alpha7 nAChR expressed in human SH-SY5Y cell membrane to Ki for human muscle type nAChR expressed in human TE-671 cell membrane; assay type: cell-based
[10] = Antagonist activity at rat alpha1beta1gamma1delta1 nAChR expressed in Xenopus laevis oocytes assessed as inhibition of ACh puff-induced maximum channel current amplitude measured at holding potential of -60 mV by two-electrode voltage clamp technique; assay type: cell-based; settings: oocyte
[11] = (§1) Antagonist activity at rat alpha1beta1gamma1delta1 nAChR expressed in Xenopus laevis oocytes assessed as inhibition of ACh puff-induced maximum channel current amplitude using UV LED light irradiated compound measured at holding potential of -60 mV by two-electrode voltage clamp technique; assay type: cell-based; settings: oocyte
Oocyte [12] = test: as §1, with “amplitude by measuring current fraction ratio” for “amplitude”; assay type: cell-based
Oocyte [13] = test: Antagonist activity at rat alpha1beta1gamma1delta1 nAChR expressed in Xenopus laevis oocytes assessed as inhibition of ACh puff-induced maximum channel current amplitude by measuring current fraction ratio measured at holding potential of -60 mV by two-electrode voltage clamp technique; assay type: cell-based
Oocyte [14] = test: (§2) Antagonist activity at rat alpha1beta1gamma1delta1 nAChR expressed in Xenopus laevis oocytes assessed as inhibition of ACh puff-induced maximum channel current amplitude at 0.1 to 5 uM measured at holding potential of -60 mV by two-electrode voltage clamp technique; assay type: cell-based; settings: filed as antagonist, dose 0.1-5 µM
Oocyte [15] = test: (§3) Antagonist activity at rat alpha1beta1gamma1delta1 nAChR expressed in Xenopus laevis oocytes assessed as inhibition of ACh puff-induced maximum channel current amplitude at 5 uM measured at holding potential of -60 mV by two-electrode voltage clamp technique; assay type: cell-based; settings: filed as antagonist
Oocyte [16] = test: as §3, with “measured following irradiation with UV LED light irradiation” for “measured”; assay type: cell-based
Oocyte [17] = test: as §2, with “measured following irradiation with UV LED light irradiation” for “measured”; assay type: cell-based; settings: dose 0.1-5 µM
Oocyte [18] = test: as §1, with “constant UV LED light irradiation-induced channel activation by measuring faster decay of Ach-induced” for “ACh puff-induced maximum”, “amplitude at 0.5 uM” for “amplitude”, “blue” for “UV”; assay type: cell-based; settings: filed as antagonist

T1 sequence (P36544 whole entry): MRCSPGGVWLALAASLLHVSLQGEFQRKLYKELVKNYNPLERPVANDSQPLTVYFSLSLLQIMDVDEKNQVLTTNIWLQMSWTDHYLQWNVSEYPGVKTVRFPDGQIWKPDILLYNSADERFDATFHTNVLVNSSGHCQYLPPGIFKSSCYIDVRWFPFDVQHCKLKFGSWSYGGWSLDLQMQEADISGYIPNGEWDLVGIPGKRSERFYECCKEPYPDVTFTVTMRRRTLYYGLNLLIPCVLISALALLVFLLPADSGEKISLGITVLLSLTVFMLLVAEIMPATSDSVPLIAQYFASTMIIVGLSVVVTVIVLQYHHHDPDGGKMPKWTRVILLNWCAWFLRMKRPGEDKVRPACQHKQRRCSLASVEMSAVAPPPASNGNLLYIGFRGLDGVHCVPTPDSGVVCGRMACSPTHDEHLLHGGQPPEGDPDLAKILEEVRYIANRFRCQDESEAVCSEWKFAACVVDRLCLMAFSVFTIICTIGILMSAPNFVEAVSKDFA
T2 sequence (P17787 whole entry): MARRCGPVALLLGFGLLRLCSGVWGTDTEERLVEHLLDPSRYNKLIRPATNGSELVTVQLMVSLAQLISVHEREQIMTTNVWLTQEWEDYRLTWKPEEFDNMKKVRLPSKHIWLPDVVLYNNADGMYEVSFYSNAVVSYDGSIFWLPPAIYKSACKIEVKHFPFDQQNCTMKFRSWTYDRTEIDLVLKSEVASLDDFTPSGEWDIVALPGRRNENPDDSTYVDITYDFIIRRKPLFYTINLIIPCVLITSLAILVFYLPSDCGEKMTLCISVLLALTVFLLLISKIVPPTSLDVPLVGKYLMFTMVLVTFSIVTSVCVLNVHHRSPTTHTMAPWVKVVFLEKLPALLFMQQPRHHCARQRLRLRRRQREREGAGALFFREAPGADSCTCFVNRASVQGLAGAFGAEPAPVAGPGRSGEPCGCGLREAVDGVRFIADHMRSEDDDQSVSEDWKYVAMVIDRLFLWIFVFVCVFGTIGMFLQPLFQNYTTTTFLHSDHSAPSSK
T2 sequence (P43681 whole entry): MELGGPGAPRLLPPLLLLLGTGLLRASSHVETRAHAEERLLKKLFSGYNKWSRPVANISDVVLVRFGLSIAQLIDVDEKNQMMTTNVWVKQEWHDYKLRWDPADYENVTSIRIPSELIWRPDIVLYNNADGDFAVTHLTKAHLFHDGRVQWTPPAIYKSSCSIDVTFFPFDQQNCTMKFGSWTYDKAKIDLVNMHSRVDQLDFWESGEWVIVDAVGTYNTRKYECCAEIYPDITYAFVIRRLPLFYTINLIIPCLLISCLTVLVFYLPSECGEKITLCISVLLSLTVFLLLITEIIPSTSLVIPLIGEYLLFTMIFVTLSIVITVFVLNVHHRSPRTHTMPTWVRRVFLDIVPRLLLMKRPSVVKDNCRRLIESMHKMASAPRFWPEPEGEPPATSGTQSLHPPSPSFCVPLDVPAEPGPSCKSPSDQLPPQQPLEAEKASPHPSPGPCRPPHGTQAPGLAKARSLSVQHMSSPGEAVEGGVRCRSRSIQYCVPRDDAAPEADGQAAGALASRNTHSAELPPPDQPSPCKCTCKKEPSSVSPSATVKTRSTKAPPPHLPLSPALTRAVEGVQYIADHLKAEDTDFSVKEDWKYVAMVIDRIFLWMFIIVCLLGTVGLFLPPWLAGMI

SMILES	solubility thermodynamic at 24 h [1]	Ki [2]	Activity (RAW264.7)	Ki [3]	inhibition [5]	Ki [6]	Papp at 4 h [7]	further results
C[N+]1(Cc2cccc(/N=N/c3ccccc3)c2)CCCCC1.[I-]	5.5 mM	> 10000 nM	Non-Toxic	> 10000 nM	39%	> 10000 nM	2 ×10⁻⁶ cm/s	inhibition ([4]; filed as antagonist): 48%; inhibition (TE-671): 45%
C[N+]1(Cc2cccc(/N=N/c3cccc(C[N+]4(C)CCCC4)c3)c2)CCCC1.[I-].[I-]	36.3 mM	2500 nM	Non-Toxic	42 nM	31%	> 10000 nM	< 1 ×10⁻⁶ cm/s	Ratio Ki (Homo sapiens [8]): > 240; Ratio Ki (Homo sapiens [9]): 60
C[N+]1(Cc2cccc(/N=N/c3cccc(C[N+]4(C)CCCCCC4)c3)c2)CCCCCC1.[I-].[I-]	5.9 mM	1900 nM	Non-Toxic	220 nM	29%	> 10000 nM	< 1 ×10⁻⁶ cm/s	Ki [10]: 300 nM
C[N+]1(Cc2ccc(/N=N/c3ccc(C[N+]4(C)CCCC4)cc3)cc2)CCCC1.[I-].[I-]	14.8 mM	930 nM	Non-Toxic	200 nM	–	> 10000 nM	< 1 ×10⁻⁶ cm/s	inhibition ([5]; filed as antagonist): 45%
C[N+]1(Cc2cccc(/N=N\c3cccc(C[N+]4(C)CC=CCC4)c3)c2)CC=CCC1 (centres undefined)	–	–	–	–	–	–	–	Ki [11]: 880 nM; Ratio (Oocyte [12]): 0.35
Clc1ccc([C@H]2C[C@@H]3CC[C@H]2N3)cn1 [(-)-EPIBATIDINE]	–	120 nM	–	–	–	–	–	–
C[N+]1(Cc2cccc(/N=N\c3cccc(C[N+]4(C)CCCCCC4)c3)c2)CCCCCC1	–	–	–	–	–	–	–	Ki [11]: 2600 nM
C[N+]1(Cc2cccc(/N=N\c3cccc(C[N+]4(C)CCCCC4)c3)c2)CCCCC1	–	–	–	–	–	–	–	Ki [11]: 2600 nM
C[N+]1(Cc2ccc(/N=N/c3ccc(C[N+]4(C)CCCCC4)cc3)cc2)CCCCC1.[I-].[I-]	34.9 mM	> 10000 nM	Non-Toxic	1100 nM	–	1500 nM	< 1 ×10⁻⁶ cm/s	inhibition [4]: 16%
C[N+]1(Cc2cccc(/N=N/c3cccc(C[N+]4(C)CC=CCC4)c3)c2)CC=CCC1.[I-].[I-] (centres undefined)	16.3 mM	730 nM	Non-Toxic	100 nM	32%	> 10000 nM	< 1 ×10⁻⁶ cm/s	Ratio (Oocyte [13]): 0.11; Ki [10]: 840 nM
C[N+]1(Cc2cccc(/N=N/c3cccc(C[N+]4(C)CCCCC4)c3)c2)CCCCC1.[I-].[I-]	38.4 mM	910 nM	Non-Toxic	35 nM	7%	> 10000 nM	< 1 ×10⁻⁶ cm/s	inhibition (Oocyte [14]): Active; inhibition (Oocyte [15]): Active; inhibition (Oocyte [16]): inactive; Ratio Ki (Homo sapiens [8]): > 290; Ratio Ki (Homo sapiens [9]): 26; Ki [10]: 460 nM; inhibition (Oocyte [17]): inactive; inhibition (Oocyte [18]): Active

— ChEMBL document CHEMBL4765337, “Optical control of muscular nicotinic channels with azocuroniums, photoswitchable azobenzenes bearing two N-methyl-N-carbocyclic quaternary ammonium groups” (Eur J Med Chem, 2020)
